Results on 13 compounds are retold here after PMC6804080, “Benzoxaboroles—Novel Autotaxin Inhibitors” (Molecules, 2019).

For one data set, the target named is T1, Autotaxin (ATX) (Homo sapiens, UniProt Q13822).
T1 construct: we added 10 μL of recombinant ATX (2 ng/mL) in a Tris–HCl buffer
Put plainly: biochemical choline detection assay for ATX inhibition, LysoPC substrate. Particulars: for IC50: mean standard deviation from duplicate experiments. The protocol:
All 21 new benzoxaboroles derivatives prepared herein were evaluated for ATX inhibition in vitro using a biochemical choline detection assay, combining elements of assays already described in the literature.
[…] Mother plates with serial dilutions of compounds in pure DMSO were prepared from 10 mM DMSO stock solutions. Storplate-384-deep-well-V plates (Perkin Elmer) were also used for mother plate preparation. Compounds were diluted in a DMSO in a ratio of 1:3. An aliquot of 200 nL of compound solution was transferred from the mother plate to the test plate with a Mosquito nanoliter liquid handling system (TTP labtech). The assay was performed in Spectra-Plate-384 TC, transparent, (Perkin Elmer, Cat#6007658) using a 20 µL assay volume. The total final percentage of DMSO in the test media was 1%. Compounds were tested at 11 consecutive three-fold dilutions starting from 50 µM (final concentrations) in duplicate, covering range of 0.0008–50 μM to determine IC50 values. […] After dispensing of compounds directly to the dry plate, we added 10 μL of recombinant ATX (2 ng/mL) in a Tris–HCl buffer (140 mM NaCl, 1mM MgCl2, 5 mM KCl, 3 mM CaCl2, 1 mg/ml bovin serum albumin (BSA, fatty acid free) and 100 mM Tris–HCl, pH 9). […] The above-described solution with dimethyl sulfoxide but without the test compound was used as a control. LysoPC without ATX was used as a control for the autohydrolysis of LysoPC. After 1.5 h of incubation, 20 μL of stop solution and developer was added {Choline oxidase (1.2 U/mL), Peroxidase (1.2 U/mL), TOOS (2.7 mM), 4-Aminoantipyrine (2.7 mM), and EDTA (50 mM)} to the reaction mixture, and absorbance was measured after 30 min of incubation. The absorbance was measured by using Perkin-Elmer EnVision plate reader (λ = 555 nm). Data were analyzed using GraphPad Prism software. The calculation of IC50 data, curves and quality control (QC) analysis was made by using Excel tools and GraphPadPrism software. Briefly, individual concentration–effect curves were generated by plotting the logarithm of the tested concentration of tested compounds (X) vs. corresponding percentage inhibition values (Y) using a least squares (ordinary) fit. […] QC criteria parameters (Z,’ S:B, ΔmP) were checked for every plate.

Data set [1] in a line: Chrom logD determination by gradient HPLC (CHI). Type of data set: physicochemical. Particulars: pH 7.4, Luna C18 column; for chromatographic logD: reversed-phase HPLC, Phenomenex Luna C18 column. On the procedure: clogP values were calculated for all compounds using the Percepta software. Chrom logD was determined experimentally using a procedure described in the supplementary data. Furthermore, the correlation between calculated clogP values and experimentally determined Chrom log D values were explored for molecules containing boron functional groups such as boronic acids and benzoxaboroles.
Chrom logD values were determined from the following equation: Chrom logD = 0.0857 × CHI − 2 [39]. Chromatographic hydrophobic index (CHI) values were determined from the gradient retention times (RT). These values approximately corresponded to the volume percentage of organic component in the mobile phase when the compound elutes. CHI values were determined at pH 7.4. Chromatograms were obtained using on Agilent 1100 Series liquid chromatography system with an HPLC diode-array detector (DAD) coupled with a Micromass Quattro micro atmosphere pressure ionization (API) mass spectrometer. The column used for analyses was Phenomenex Luna C18 (50 × 3 mm, 5 µm, 100 Å). The column was maintained at 25 °C. The flow rate was 1.0 mL/min. The mobile phase was composed of 50 mM ammonium acetate in water at pH 7.4 (solvent A) and acetonitrile (solvent B). The solvent gradient condition was initially 0.5% B, and then it increased linearly to 100% B over 3.0 min, remaining at 100% B for 0.5 min, then decreasing linearly to 0% B over 0.2 min followed by an equilibration period of 1.3 min prior to the next injection. The total experimental duration was 5 min. Injection volume was 2.0 µl. Samples temperature was maintained at 15 °C in the autosampler chamber. A group of ten standard compounds having different CHI values was used for calibration of RP-HPLC [40].

Data set [2] is described as follows: metabolic stability in human liver microsomes. The format is in vitro ADME. The protocol:
(§1) Metabolic stability was assessed in rat and human liver microsomes, with testosterone and propranolol as positive controls. All compounds, at a final concentration of 1 μM (0.03% DMSO), were incubated in a phosphate buffer (50 mM, pH 7.4) for 60 min at 37 °C, together with liver microsomes in the absence and presence of NADPH generating system (nicotinamide adenine dinucleotide phosphate (NADP, 2 mM), glucose-6-phosphate (20 mM), glucose-6-phosphate dehydrogenase (6U) and magnesium chloride (2 mM)). Aliquots were taken at different time points (0, 10, 20, 30, 45 and 60 min), followed by reaction termination by addition of CH3CN:CH3OH 2:1 v/v, containing diclofenac as internal standard (IS). Samples were then centrifuged (at 2000 rpm at 4 °C for 30 min), and resulting supernatants were subjected to LC/MS/MS analysis. The in vitro half-life was calculated in GraphPadPrism software from % remaining vs. time regression using non-linear regression fit. In vitro intrinsic clearance, expressed as mL/min/g liver, was determined from in vitro half-life and normalized for the protein concentration in the incubation mixture, assuming a 52.5 mg/g liver.

A short description of data set [3]: in vitro plasma stability, human plasma. The format is in vitro ADME. Particulars: after 4 h. On the procedure:
(§2) The in vitro plasma stability of the test compounds was studied in human and rat plasma with propranolol, benflorex, and eucatropine as control substances. All compounds at final concentrations of 5 μM (0.5% DMSO) were incubated in a phosphate buffer (50 mM, pH 7.4) for 4 h at 37 °C together with plasma. Aliquots were taken at different time points (0, 30, 120 min and 4 h), followed by reaction termination by the addition of CH3CN:CH3OH 2:1 v/v., which contained diclofenac and warfarin as internal standards (IS). Samples were then centrifuged (at 1600 rpm at 4 °C for 30 min), and the resulting supernatants were subjected to LC/MS/MS analysis. Results are expressed as % remaining.

The nature of data set [4]: metabolic stability in rat liver microsomes. The format is in vitro ADME. The protocol:
as §1

A short description of data set [5]: in vitro plasma stability, rat plasma. The format is in vitro ADME. Particulars: after 4 h. On the procedure:
as §2

Data set [6] in a line: kinetic solubility, turbidimetric method. The format is physicochemical. As to conditions: 37 °C, pH 7.4, aqueous buffer, kinetic from dmso stock, Solubility (kinetic solubility range). On the procedure: Turbidimetric solubility allows for a rapid determination of kinetic solubility by using small amounts of the test compound. Assay controls were α-naphtoflavone (low solubility) and sulfaphenazole (expected solubility >100µM). DMSO stock solutions (10 mM) of each compound were first serially diluted 1 in 3 in DMSO and then spiked into an aqueous buffer (100 mM PBS), resulting in 5 following final concentration: 100, 30, 10, 3 and 1 µM (each concentration was tested in duplicate). […] Compound samples were compared to a solvent control in an aqueous buffer (DMSO 1% final concentration), and a significant increase of sample absorbance was considered to have occurred when the absorbance reached a 3-fold standard deviation of the average DMSO absorbance. The calculation of solubility range data was made by Excel tool software. Results are expressed as an estimated solubility range.

Setting [7] is: choline release assay using as a substrate.
Where [8] appears, read: choline release assay using LPC C16:0 as a substrate.

In brackets after ≈: the same amount, converted by molar mass.

The compound `O=C(OCc1cc(Cl)cc(Cl)c1)N1CCN(C2CCN(C(=O)c3ccc4c(c3)COB4O)C2)CC1` (centres unmarked) [Compound 32, (3,5-dichlorophenyl)methyl 4-[1-(1-hydroxy-3H-2,1-benzoxaborole-5-carbonyl)pyrrolidin-3-yl]piperazine-1-carboxylate] had a concentration for half-maximal inhibition (IC50) against Autotaxin (ATX) (setting [7]) of 0.37 ± 0.35 µM. On Autotaxin (ATX) (in words), the “ATX inhibition, range of activity” value was “nanomolar range”. In data set [1], this compound had a chromatographic logD of 4.38.
`O=C(OCc1cc(Cl)cc(Cl)c1)N1CCN(C2CCN(C(=O)c3cccc4c3COB4O)C2)CC1` (centres unmarked) [Compound 33] showed an IC50 on Autotaxin (ATX) (setting [8]) of 8 ± 2.58 µM. The “Chrom logD” value in data set [1] turned out to be 5.40.
Take `O=C(OCc1cc(Cl)cc(Cl)c1)N1CCN(C2CN(C(=O)c3ccc4c(c3)COB4O)C2)CC1` [Compound 38, (3,5-dichlorophenyl)methyl 4-[1-(1-hydroxy-3H-2,1-benzoxaborole-5-carbonyl)azetidin-3-yl]piperazine-1-carboxylate]: in data set [2], the “LMS: predicted in vivo hepatic clearance, human” value is listed as 79 %LBF. For the same compound, the “PS (plasma stability), human” value in data set [3] was found to be 79.1 %remaining. Also, the “LMS: predicted in vivo hepatic clearance, rat” value in data set [4] is 82 %LBF. Further, at Autotaxin (ATX) (setting [7]), the half-maximal inhibitory concentration (IC50) amounted to 2 ± 1.73 µM. The compound further gave a chromatographic logD in data set [1] of 4.46. Moreover, the “PS (plasma stability), rat” value in data set [5] came to 60.1 %remaining. The kinetic solubility at 1 h in data set [6] was 30 to 100 µM (≈ 15.1 to 50.4 µg/mL).
`O=C(OCc1ccccc1)N1CCN(C2CCN(C(=O)c3ccc4c(c3)B(O)OC4)C2)CC1` (centres unmarked) [Compound 39, benzyl 4-[1-(1-hydroxy-3H-2,1-benzoxaborole-6-carbonyl)pyrrolidin-3-yl]piperazine-1-carboxylate]: the IC50 on Autotaxin (ATX) (setting [7]) was above 50 µM. In data set [1], this compound gave a chromatographic logD of 3.05.
On the same counts, the results for `O=C(OCc1ccccc1)N1CCN(C2CCN(C(=O)c3ccc4c(c3)COB4O)C2)CC1` (centres unmarked) [Compound 40, benzyl 4-[1-(1-hydroxy-3H-2,1-benzoxaborole-5-carbonyl)pyrrolidin-3-yl]piperazine-1-carboxylate] are above 50 µM and 2.9.
At Autotaxin (ATX) (setting [7]), `O=C(OCc1ccccc1)N1CCN(C2CN(C(=O)c3ccc4c(c3)B(O)OC4)C2)CC1` [Compound 41, benzyl 4-[1-(1-hydroxy-3H-2,1-benzoxaborole-6-carbonyl)azetidin-3-yl]piperazine-1-carboxylate] registered an IC50 of 23 ± 1.18 µM. Further, the chromatographic logD in data set [1] is 3.07.
`O=C(OCc1ccccc1)N1CCN(C2CN(C(=O)c3ccc4c(c3)COB4O)C2)CC1` [Compound 42, benzyl 4-[1-(1-hydroxy-3H-2,1-benzoxaborole-5-carbonyl)azetidin-3-yl]piperazine-1-carboxylate] returned a half-maximal inhibitory concentration (IC50) on Autotaxin (ATX) (setting [7]) above 50 µM. Moreover, the chromatographic logD in data set [1] came out at 2.9.
In the case of `Cc1cc(C)cc(COC(=O)N2CCN(C3CCN(C(=O)c4ccc5c(c4)COB5O)C3)CC2)c1` (centres unmarked) [Compound 44, (3,5-dimethylphenyl)methyl 4-[1-(1-hydroxy-3H-2,1-benzoxaborole-5-carbonyl)pyrrolidin-3-yl]piperazine-1-carboxylate], the IC50 on Autotaxin (ATX) (setting [7]) came out at 4.7 ± 1.14 µM. Moreover, the chromatographic logD in data set [1] amounted to 3.99.
With `Cc1cc(C)cc(COC(=O)N2CCN(C3CN(C(=O)c4ccc5c(c4)COB5O)C3)CC2)c1` [Compound 46, (3,5-dimethylphenyl)methyl 4-[1-(1-hydroxy-3H-2,1-benzoxaborole-5-carbonyl)azetidin-3-yl]piperazine-1-carboxylate], on Autotaxin (ATX) (setting [7]), it took 5.1 ± 2.75 µM to reach half-maximal inhibition (IC50). In data set [1], this compound came in with a chromatographic logD of 4.01.
In turn, `COc1cc(COC(=O)N2CCN(C3CCN(C(=O)c4ccc5c(c4)B(O)OC5)C3)CC2)cc(OC)c1` (centres unmarked) [Compound 47, (3,5-dimethoxyphenyl)methyl 4-[1-(1-hydroxy-3H-2,1-benzoxaborole-6-carbonyl)pyrrolidin-3-yl]piperazine-1-carboxylate] showed an IC50 at Autotaxin (ATX) (setting [7]) of 14 ± 5.5 µM. Further, the chromatographic logD in data set [1] came to 3.19.
With `COc1cc(COC(=O)N2CCN(C3CCN(C(=O)c4ccc5c(c4)COB5O)C3)CC2)cc(OC)c1` (centres unmarked) [Compound 48, (3,5-dimethoxyphenyl)methyl 4-[1-(1-hydroxy-3H-2,1-benzoxaborole-5-carbonyl)pyrrolidin-3-yl]piperazine-1-carboxylate], the IC50 against Autotaxin (ATX) (setting [7]) is 15 ± 6.07 µM. For the same compound, in data set [1], the chromatographic logD came out at 3.03.
On the same counts, the results for `COc1cc(COC(=O)N2CCN(C3CN(C(=O)c4ccc5c(c4)B(O)OC5)C3)CC2)cc(OC)c1` [Compound 49, (3,5-dimethoxyphenyl)methyl 4-[1-(1-hydroxy-3H-2,1-benzoxaborole-6-carbonyl)azetidin-3-yl]piperazine-1-carboxylate] are 11 ± 4.59 µM and 3.21.
On Autotaxin (ATX) (setting [8]), `COc1cc(COC(=O)N2CCN(C3CN(C(=O)c4ccc5c(c4)COB5O)C3)CC2)cc(OC)c1` [Compound 50] yielded an IC50 of 13 ± 3.26 µM. In addition, the “Chrom logD” value in data set [1] was found to be 3.07.
